From ChEMBL document CHEMBL1201862, “PubChem BioAssay data set” (2004) come the findings set out here.

Active and inactive are the calls of the source.

Format in all cases: functional
The nature of test [1]: growth suppression of PTEN-null colon cells, dose response, cell-based, HCT116 PTEN knockout (AID 1047).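 Note: HCT116 colon tumor cells with PTEN knocked out; cells exposed to compound for 60 hours before readout; potency for loss of cell viability measured by luminescence.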
Test [2] in a line: growth suppression of beta-catenin-knockout colon cells, dose response, cell-based, HCT116, human colon tumor (AID 1045).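 Note: HCT116 colon tumor cells with beta catenin knocked out; cells exposed to compound for 60 hours.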
The target of test [3] is T1, Polyadenylate-binding protein 1 (Homo sapiens, UniProt P11940). Briefly: PABP1 MLLE–PAM2 interaction inhibitors, dose response, miRNA deadenylation inhibitor project, biochemical, fluorescence polarization, Cy5-PAM2 peptide, secondary (AID 602260). Particulars: read-out: IC50_Mean.
T1 sequence (P11940 whole entry): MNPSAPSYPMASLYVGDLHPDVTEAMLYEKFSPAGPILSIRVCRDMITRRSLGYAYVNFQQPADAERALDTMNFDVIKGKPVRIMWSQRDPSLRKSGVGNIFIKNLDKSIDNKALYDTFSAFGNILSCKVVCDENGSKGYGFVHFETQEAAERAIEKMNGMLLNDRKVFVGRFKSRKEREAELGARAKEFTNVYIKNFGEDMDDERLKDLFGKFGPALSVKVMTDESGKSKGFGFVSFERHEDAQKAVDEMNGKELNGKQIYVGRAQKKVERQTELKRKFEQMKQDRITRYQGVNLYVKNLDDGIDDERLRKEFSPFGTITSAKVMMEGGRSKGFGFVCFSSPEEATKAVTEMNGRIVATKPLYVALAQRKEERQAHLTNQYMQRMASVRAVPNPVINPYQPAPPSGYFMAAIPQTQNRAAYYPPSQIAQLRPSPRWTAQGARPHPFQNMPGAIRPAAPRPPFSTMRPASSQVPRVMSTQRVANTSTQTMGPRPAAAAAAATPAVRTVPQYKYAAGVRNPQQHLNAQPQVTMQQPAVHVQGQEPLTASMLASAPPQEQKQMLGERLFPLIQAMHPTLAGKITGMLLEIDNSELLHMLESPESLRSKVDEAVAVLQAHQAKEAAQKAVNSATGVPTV
The target in test [4] is T1, Polyadenylate-binding protein 1. The test is described as follows: PABP1 MLLE–PAM2 binding inhibitor potency, dose response, biochemical, fluorescence polarization, FITC-PAM2 peptide (AID 602259). Particulars: read-out: IC50_Mean.
In test [5] the target is T2, Protein skinhead-1 (Caenorhabditis elegans, UniProt P34707).
T2 sequence (P34707 whole entry): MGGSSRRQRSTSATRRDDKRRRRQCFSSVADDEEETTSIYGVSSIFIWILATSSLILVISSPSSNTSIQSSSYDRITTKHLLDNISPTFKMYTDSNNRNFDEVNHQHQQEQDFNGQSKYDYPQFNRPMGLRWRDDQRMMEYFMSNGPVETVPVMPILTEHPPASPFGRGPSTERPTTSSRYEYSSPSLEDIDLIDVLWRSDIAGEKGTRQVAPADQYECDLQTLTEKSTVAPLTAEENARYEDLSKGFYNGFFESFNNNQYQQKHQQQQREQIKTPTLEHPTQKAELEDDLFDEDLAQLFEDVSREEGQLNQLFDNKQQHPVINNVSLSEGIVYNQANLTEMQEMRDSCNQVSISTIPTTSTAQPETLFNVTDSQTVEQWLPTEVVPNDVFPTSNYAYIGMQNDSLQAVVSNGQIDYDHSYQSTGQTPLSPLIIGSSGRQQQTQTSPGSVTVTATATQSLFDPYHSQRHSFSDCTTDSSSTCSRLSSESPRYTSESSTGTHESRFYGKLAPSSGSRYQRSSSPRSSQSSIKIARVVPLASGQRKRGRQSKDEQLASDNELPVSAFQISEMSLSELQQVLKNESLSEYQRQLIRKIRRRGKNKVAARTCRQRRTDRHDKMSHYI

For test [6], the target named is T3, Protein RecA (Mycobacterium tuberculosis, UniProt P9WHJ3).
T3 sequence (P9WHJ3 whole entry): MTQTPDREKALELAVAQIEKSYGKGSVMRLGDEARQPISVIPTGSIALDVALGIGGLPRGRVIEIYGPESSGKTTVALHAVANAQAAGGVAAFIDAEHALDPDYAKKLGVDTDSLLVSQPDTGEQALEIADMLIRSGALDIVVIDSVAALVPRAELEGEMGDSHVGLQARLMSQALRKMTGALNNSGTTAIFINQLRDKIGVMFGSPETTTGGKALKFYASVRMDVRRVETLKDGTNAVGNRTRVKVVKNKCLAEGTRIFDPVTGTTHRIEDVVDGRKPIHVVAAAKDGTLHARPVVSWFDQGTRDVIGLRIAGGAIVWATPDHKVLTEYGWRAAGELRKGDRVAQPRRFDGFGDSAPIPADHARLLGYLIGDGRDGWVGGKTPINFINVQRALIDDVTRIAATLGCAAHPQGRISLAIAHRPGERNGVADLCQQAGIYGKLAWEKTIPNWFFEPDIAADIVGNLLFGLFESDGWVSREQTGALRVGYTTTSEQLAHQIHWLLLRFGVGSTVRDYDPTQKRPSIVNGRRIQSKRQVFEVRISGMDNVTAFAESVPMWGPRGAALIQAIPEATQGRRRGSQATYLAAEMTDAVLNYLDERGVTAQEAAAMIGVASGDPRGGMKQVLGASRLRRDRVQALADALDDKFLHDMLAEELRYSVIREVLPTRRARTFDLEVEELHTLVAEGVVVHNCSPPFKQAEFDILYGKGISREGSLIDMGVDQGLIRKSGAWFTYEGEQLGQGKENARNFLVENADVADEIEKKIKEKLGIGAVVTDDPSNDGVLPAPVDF
Briefly: Fluorescence Cell-Free Homogeneous Dose Retest to Identify Inhibitors of RecA-Intein Splicing Activity. [Related pubchem assays (depositor defined):AID2097, AID2223, AID489010, AID492950].

Test [7] can be described thus: Luminescence Cell-Based Dose Response HTS to Identify Activators of Luciferase Translation or Activity in H4 […] Cells. [Related pubchem assays: 1829 (Project Summary), 1814 (Primary HTS)].
Test [8] is described as follows: Luminescence Cell-Based Dose Confirmation HTS to Identify Activators of 5'UTR Stem-Loop Driven Alpha-Synuclein mRNA Translation in H4 Neuroglioblastoma Cells. [Related pubchem assays: 1829 (Project Summary), 1814 (Primary HTS)].
The test system of test [9] is H4. Briefly: Luminescence Cell-Based Dose Response HTS to Identify Activators of 5'UTR Stem-Loop Driven Prion Protein mRNA Translation in H4 Neuroglioblastoma Cells. [Related pubchem assays: 1829 (Project Summary), 1814 (Primary HTS)]. The following applies: Homo sapiens.
Test [10] deals with T4, Corticotropin-releasing factor receptor 2/Corticotropin-releasing factor-binding protein (Homo sapiens, UniProt P24387+Q13324).
T4 sequence (Q13324 whole entry): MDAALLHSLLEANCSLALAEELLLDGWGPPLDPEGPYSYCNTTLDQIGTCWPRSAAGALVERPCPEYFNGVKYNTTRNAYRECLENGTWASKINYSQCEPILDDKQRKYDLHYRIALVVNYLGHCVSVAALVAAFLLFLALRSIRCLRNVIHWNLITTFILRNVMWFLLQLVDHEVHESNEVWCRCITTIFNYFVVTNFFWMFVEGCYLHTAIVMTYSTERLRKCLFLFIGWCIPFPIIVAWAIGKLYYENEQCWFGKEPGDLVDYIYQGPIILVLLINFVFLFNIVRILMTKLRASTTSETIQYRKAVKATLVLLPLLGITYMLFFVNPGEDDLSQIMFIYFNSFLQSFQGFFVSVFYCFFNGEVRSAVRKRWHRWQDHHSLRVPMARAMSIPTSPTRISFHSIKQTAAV
T4 sequence (P24387 whole entry): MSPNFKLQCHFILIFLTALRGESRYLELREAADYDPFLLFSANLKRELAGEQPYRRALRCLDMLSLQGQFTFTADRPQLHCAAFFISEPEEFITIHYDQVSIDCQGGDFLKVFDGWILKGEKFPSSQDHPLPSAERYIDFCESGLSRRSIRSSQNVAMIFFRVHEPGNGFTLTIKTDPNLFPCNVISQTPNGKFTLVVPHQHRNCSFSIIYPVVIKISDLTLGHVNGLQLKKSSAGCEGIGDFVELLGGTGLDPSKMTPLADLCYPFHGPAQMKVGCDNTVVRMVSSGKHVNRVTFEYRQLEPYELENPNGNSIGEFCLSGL
Briefly: Dose Response confirmation of uHTS hits for small molecule antagonists of the CRF-binding protein and CRF-R2 receptor complex. Particulars: read-out: IC50_Mean.

Test [11] addresses T4, Corticotropin-releasing factor receptor 2/Corticotropin-releasing factor-binding protein. The test is described as follows: activators of CRF receptor 2 with binding protein – uHTS hits, confirmation (AID 602473). Particulars: read-out: EC50_Mean.

As to `CCOC(=O)/C=c1\s/c(=C\c2ccc(C(F)(F)F)cc2)c(=O)n1CC(=O)NCc1ccco1`, the results for the EC50 in [1] and in test [2] were 35.9 µM (active) and 45.9 µM (active), respectively.

Consider `CCOC(=O)/C(=C/c1ccc(N2CCC(c3ccccc3)=N2)cc1)C(C)=O`, for which the EC50 is 0.014 µM (active) in test [1] and 26.7 µM (active) in [2]. Regarding `CCN1C(=O)/C(=C2\Sc3ccccc3N2CC)OC1=S`, the IC50 in [3] and in [4] was > 66 µM (inactive) in each case. For the molecule `CCNC(=O)c1sc(=S)n(-c2ccc(C)cc2)c1N`, the IC50 in test [3] and in test [4] was > 66 µM (inactive) throughout. Turning to `CCOc1ccc2c(c1)n([O-])c1c([n+]2=O)CCCC1`, the IC50 in [3] and in test [4] was > 66 µM (inactive) in each case. In the case of `O=C(c1ccc(S(=O)(=O)NCc2ccco2)cc1)N1CCN(c2ccc(F)cc2)CC1`, the IC50 in test [5] is > 100 µM (inactive).

Consider `CCOC(=O)c1cc2cc3ccccc3cc2[nH]1`, for which the EC50 is > 380 µM (inactive) in test [6], 0.191 µM (active) in test [7], 0.164 µM (active) in [8] and > 120 µM (not active) in test [9]. The IC50 in test [5] is > 100 µM (inactive). For the molecule `COc1cccc(/C=N/NC(=O)CNC(=O)C2COc3ccccc3O2)c1O` (centres undefined), the EC50 is 13.1 µM (active) in test [1] and 10.9 µM (active) in test [2]. In the case of `C#CCNC(=O)C1=C[C@@H](c2cn(C(C)=O)c3ccccc23)C[C@@H](OCCCCO)O1`, in test [5], the IC50 is > 100 µM (inactive).

With `COc1ccc(Cl)cc1NC(=O)CN(C(=O)c1ccco1)C1CCCCC1`, the IC50 in test [3] and in [4] was > 66 µM (inactive) in each case. With `Cc1ccc(CNC(=O)CSc2nccn(-c3ccc(C)c(F)c3)c2=O)cc1`, the IC50 in test [3] and in test [4] was > 66 µM (inactive) throughout. `O=C(Nc1ccc2oc(-c3cccnc3)nc2c1)c1ccc(Br)o1`: the IC50 in test [5] is > 100 µM (inactive). `O=Cc1ccc(OC(=O)c2cc(Cl)nc3ccccc23)cc1`: the IC50 in test [3] and in [4] was > 66 µM (inactive) in each case. As to `Cn1nnc(NC(=S)NC(=O)c2ccc3ccccc3c2)n1`, the IC50 in test [3] and in test [4] was > 66 µM (inactive) in each case.

Consider `CC1=NN(c2ccccc2)C(=O)/C1=C\C=C1\N(C)c2ccccc2C1(C)C`, for which, in test [5], the IC50 was 42.5 µM (active). As to `COc1cc2cc(/C=C/C(=O)c3ccco3)c(Cl)nc2cc1OC`, the EC50 in [1] is 11.6 µM (active); in test [2], 10.1 µM (active). As to `CCCCN1C(=O)C(O)(CC(=O)c2ccco2)c2cc(Br)ccc21` (centres undefined), the EC50 is 7.11 µM (active) in test [1] and 5.01 µM (active) in test [2].

Turning to `C=CCNc1nc(-c2ccc([N+](=O)[O-])cc2)cs1`, the IC50 in [5] is 23.7 µM (active). Consider `O=c1cc(-c2ccc(F)cc2)oc2ccccc12`, for which the IC50 was > 47.1 µM (inactive) in [10] and 16.2 µM (active) in test [5]. In test [11], the EC50 is > 53 µM (inactive). Regarding `COc1ccc(S(=O)(=O)Nc2ccc(S(=O)(=O)Nc3ccc(F)cc3)cc2)cc1C`, the IC50 in [5] was > 100 µM (inactive). As for `COC(=O)/C=C1\SC(NC(=O)c2ccc(C)cc2)=NC1=O`, the IC50 in test [3] and in test [4] was > 66 µM (inactive) each time. As to `CS(=O)(=O)N1N=C(c2cccs2)CC1c1ccccc1O` (centres undefined), in test [5], the IC50 is > 100 µM (inactive).

As for `Cc1c(NC(=S)NC(=O)c2cc3ccccc3o2)cccc1C(=O)O`, the IC50 in test [3] and in test [4] was > 66 µM (inactive) each time.

`CC(=O)O[C@H]1[C@@H](O)[C@H](O)[C@H](Oc2c(O)c(C)c3c4c2[C@@H](C)CC[C@@H]4[C@@H](C)C[C@@H]3C=C(C)C)O[C@H]1C`: the IC50 in [5] was > 100 µM (inactive).
